Assay [1] addresses T1, CB2 receptor (Mus musculus, UniProt P47936).
T1 construct: membranes were prepared from frozen mouse spleen; from tissue; host or cells: mouse spleen
The experiment in a line: CB2 receptor binding, [3H] CP-55,940 displacement, mouse spleen membranes. The settings on record: for Ki: mouse spleen membranes, [3H] CP-55,940, read-out: Kl CB2 (converted). The protocol:
(§1) The materials were tested for CB2 receptor binding affinity and for CB1 receptor affinity (to determine selectivity for the CB2 receptor). As used herein, “binding affinity” is represented by the IC50 value which is the concentration of an analog required to occupy the 50% of the total number (Bmax) of the receptors. The lower the IC50 value the higher the binding affinity.
(§2) The treated membranes were subsequently used in the binding assay described below. Approximately 30 μg of membranes were incubated in silanized 96-well microtiter plate with TME containing 0.1% essentially fatty acid-free bovine serum albumin (BSA), 0.8 nM [^3H] CP-55,940, and various concentrations of test materials at […] for 1 hour. The samples were filtered using Packard Filtermate 196 and Whatman GF/C filterplates and washed with wash buffer (TME) containing 0.5% BSA. Radioactivity was detected using MicroScint 20 scintillation cocktail added directly to the dried filterplates, and the filterplates were counted using a Packard Instruments Top-Count. Nonspecific binding was assessed using 100 nM CP-55,940. Data collected from three independent experiments performed with duplicate determinations was normalized between 100% and 0% specific binding for [^3H] CP-55,940, determined using buffer and 100 nM CP-55,940. The normalized data was analyzed using a 4-parameter nonlinear logistic equation to yield IC50 values. Data from at least two independent experiments performed in duplicate was used to calculate IC50 values which were converted to Ki values using the assumptions of Cheng et al, Relationship Between the Inhibition Constant (Ki) and the concentration of Inhibitor which causes 50% Inhibition (IC50) of an Enzymatic Reaction, Biochem. Pharmacol., 22, 3099–3102, (1973), which is incorporated by reference herein.
For the CB2 receptor binding studies, membranes were prepared from frozen mouse spleen essentially according to the procedure of P. R. Dodd et al, A Rapid Method for Preparing Synaptosomes: Comparison with Alternative Procedures, Brain Res., 226, 107–118 (1981) which is incorporated by reference herein. Silanized centrifuge tubes were used throughout to minimize receptor loss due to adsorption. The CB2 binding assay was conducted in the same manner as for the CB1 binding assay. The binding affinities (Ki) were also expressed in nanomoles (nM).

Assay [2] deals with T2, CB1 receptor (Rattus norvegicus, UniProt P20272).
T2 construct: membranes were prepared from rat forebrain membranes; from tissue; host or cells: rat forebrain
The experiment in a line: CB1 receptor binding, [3H] CP-55,940 displacement, rat forebrain membranes. The settings on record: for Ki: rat forebrain membranes, 0.8 nM [3H] CP-55,940, read-out: Kl CB1; for selectivity for the CB1 receptor: binding selectivity CB1 versus CB2, from the results in the TABLES. The protocol:
as §1
For the CB1 receptor binding studies, membranes were prepared from rat forebrain membranes according to the procedure of P. R. Dodd et al, A Rapid Method for Preparing Synaptosomes: Comparison with Alternative Procedures, Brain Res., 107–118 (1981). The binding of the novel analogues to the CB1 cannabinoid receptor was assessed as described in W. A. Devane et al, Determination and Characterization of a Cannabinoid Receptor in a Rat Brain, Mol. Pharmacol., 34, 605–613 (1988) and A. Charalambous et al, 5′-azido Δ^8 THC: A Novel Photoaffinity Label for the Cannabinoid Receptor, J. Med. Chem., 35, 3076–3079 (1992) with the following changes. The above articles are incorporated by reference herein.
Membranes, previously frozen at −80° C., were thawed on ice. To the stirred suspension was added three volumes of TME (25 mM Tris-HCl buffer, 5 mM MgCl2 and 1 mM EDTA) at a pH 7.4. The suspension was incubated at 4° C. for 30 min. At the end of the incubation, the membranes were pelleted and washed three times with TME.
as §2

Structures are written as SMILES. Where two headings read alike, the source gives them in different places.

T1 sequence (P47936 whole entry): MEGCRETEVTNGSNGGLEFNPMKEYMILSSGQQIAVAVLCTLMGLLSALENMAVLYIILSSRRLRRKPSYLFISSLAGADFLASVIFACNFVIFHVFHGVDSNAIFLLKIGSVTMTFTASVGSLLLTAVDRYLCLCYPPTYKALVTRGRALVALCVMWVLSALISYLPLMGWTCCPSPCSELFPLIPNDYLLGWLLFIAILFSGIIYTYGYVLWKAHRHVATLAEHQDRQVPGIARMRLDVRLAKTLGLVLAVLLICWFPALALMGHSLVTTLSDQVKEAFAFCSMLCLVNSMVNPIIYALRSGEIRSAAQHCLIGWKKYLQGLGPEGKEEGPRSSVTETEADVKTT
T2 sequence (P20272 whole entry): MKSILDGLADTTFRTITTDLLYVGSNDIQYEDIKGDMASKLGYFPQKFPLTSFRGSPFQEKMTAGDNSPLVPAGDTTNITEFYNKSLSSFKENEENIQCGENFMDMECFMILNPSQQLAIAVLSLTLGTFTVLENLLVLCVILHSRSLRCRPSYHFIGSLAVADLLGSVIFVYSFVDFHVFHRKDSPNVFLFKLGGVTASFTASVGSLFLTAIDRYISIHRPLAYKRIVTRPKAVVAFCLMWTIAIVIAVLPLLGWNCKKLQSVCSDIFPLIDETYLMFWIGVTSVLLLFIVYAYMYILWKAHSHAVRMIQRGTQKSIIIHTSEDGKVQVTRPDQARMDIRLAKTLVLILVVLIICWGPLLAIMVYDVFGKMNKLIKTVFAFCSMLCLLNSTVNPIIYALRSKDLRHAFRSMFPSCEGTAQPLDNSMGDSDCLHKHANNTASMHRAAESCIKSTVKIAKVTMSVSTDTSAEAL

As for `Cc1c(C(=O)c2ccccc2I)c2ccc([N+](=O)[O-])cc2n1CC1CCCCN1C` (racemic) [AM664], the Ki was 80 nM in assay [1] (TABLE 1, racemic samples) and 40 nM in assay [2] (TABLE 1, racemic samples).
The corresponding values for `Cc1c(C(=O)c2ccccc2I)c2ccc(N)cc2n1CC1CCCCN1C` (racemic) [AM665] are 20.3 nM and 206 nM.
For `Cc1c(C(=O)c2ccccc2)c2ccc(N=[N+]=[N-])cc2n1CC1CCCCN1C` (racemic) [AM671], the Ki in assay [1] (TABLE 1, racemic samples) is 59.1 nM; in assay [2] (TABLE 1, racemic samples) it was 155 nM.
As for `Cc1c(C(=O)c2ccccc2)c2ccc(N=C=S)cc2n1CC1CCCCN1C` (racemic) [AM684], the Ki was 44.8 nM in assay [1] (TABLE 1, racemic samples) and 181 nM in assay [2] (TABLE 1, racemic samples).
Taken in the same sequence, the figures for `Cc1c(C(=O)c2ccccc2I)c2ccc(N=[N+]=[N-])cc2n1CC1CCCCN1C` (racemic) [AM1215] were 21.9 nM and 40.7 nM.
Consider `Cc1c(C(=O)c2ccccc2I)c2ccc(N=C=S)cc2n1CC1CCCCN1C` (racemic) [AM1216], for which the Ki in assay [1] (TABLE 1, racemic samples) was 25.2 nM; in assay [2] (TABLE 1, racemic samples), 210 nM.
Taken in the same sequence, the figures for `CN1CCCCC1Cn1cc(C(=O)c2cccc3ccccc23)c2ccc(N=C=S)cc21` (racemic) [AM1217] were 81.5 nM and 255 nM.
The corresponding values for `CN1CCCCC1Cn1cc(C(=O)c2cccc3ccccc23)c2ccc([N+](=O)[O-])cc21` (racemic) [AM1218] are 3.98 nM and 11.2 nM.
The corresponding values for `CN1CCCCC1Cn1cc(C(=O)c2cccc3ccccc23)c2ccc(N)cc21` (racemic) [AM1219] are 31.3 nM and 96.6 nM.
On to `CN1CCCCC1Cn1cc(C(=O)c2cccc3ccccc23)c2ccc(N=[N+]=[N-])cc21` (racemic) [AM1224], for which the Ki is 0.73 nM in assay [1] (TABLE 1, racemic samples) and 20.2 nM in assay [2] (TABLE 1, racemic samples).
As to `Cc1c(C(=O)c2cccc3ccccc23)c2ccc(N)cc2n1CC1CCCCN1C` (racemic) [AM1225], the Ki in assay [1] (TABLE 1, racemic samples) was 38.5 nM; in assay [2] (TABLE 1, racemic samples) it was 440 nM.
Taken in the same sequence, the figures for `Cc1c(C(=O)c2cccc3ccccc23)c2ccc(N=[N+]=[N-])cc2n1CC1CCCCN1C` (racemic) [AM1231] were 34.2 nM and 31.2 nM.
Taken in the same sequence, the figures for `CN1CCCCC1Cn1cc(C(=O)c2cc3ccc4cccc5ccc(c2)c3c45)c2ccccc21` (racemic) [AM1253] were 126 nM and 60.3 nM.
The corresponding values for `CN1CCCCC1Cn1cc(C(=O)c2cc(N=[N+]=[N-])ccc2I)c2ccc(N=[N+]=[N-])cc21` (racemic) [AM2209] are 41.8 nM and 48.8 nM.
Take `CN1CCCCC1Cn1cc(C(=O)c2ccc(I)c3ccccc23)c2ccc(N=[N+]=[N-])cc21` (racemic) [AM2212]: the Ki is 2.9 nM in assay [1] (TABLE 1, racemic samples) and 31 nM in assay [2] (TABLE 1, racemic samples).
The corresponding values for `CN1CCCCC1Cn1cc(C(=O)c2ccc(N=C=S)c3ccccc23)c2ccc(N=C=S)cc21` (racemic) [AM2215] are 99.6 nM and 235 nM.
The corresponding values for `CN1CCCCC1Cn1cc(C(=O)c2cc(N=C=S)ccc2I)c2ccc(N=C=S)cc21` (racemic) [AM2223] are 29.9 nM and 64.8 nM.
For `CCCCCn1c(C)c(C(=O)c2ccccc2I)c2ccccc21` [AM669], the results for the Ki in assay [1] (TABLE 2) and in assay [2] (TABLE 2) were 38.6 nM and 47.2 nM, respectively.
As to `CCCCCCCn1c(C)c(C(=O)c2ccccc2I)c2ccccc21` [AM672], the Ki in assay [1] (TABLE 2) is 1510 nM; in assay [2] (TABLE 2), 1600 nM.
The corresponding values for `CCCCCn1cc(C(=O)c2ccccc2I)c2ccccc21` [AM679] are 49.5 nM and 13.5 nM.
For the compound `CCCCCCn1c(C)c(C(=O)c2ccccc2I)c2ccccc21` [AM682], the Ki was 693 nM in assay [1] (TABLE 2) and 332 nM in assay [2] (TABLE 2).
Taken in the same sequence, the figures for `CCCCn1c(C)c(C(=O)c2ccccc2I)c2ccccc21` [AM683] were 281 nM and 272 nM.
Regarding `CC(=O)OCCCCCn1c(C)c(C(=O)c2ccccc2I)c2ccccc21` [AM689], the Ki in assay [1] (TABLE 2) was 1020 nM; in assay [2] (TABLE 2) it was 2280 nM.
Taken in the same sequence, the figures for `Cc1c(C(=O)c2ccccc2I)c2ccccc2n1CCCCCO` [AM690] were 1970 nM and 4850 nM.
The corresponding values for `CC(=O)OCCCCCn1cc(C(=O)c2ccccc2I)c2ccccc21` [AM692] are 1520 nM and 2660 nM.
Taken in the same sequence, the figures for `O=C(c1ccccc1I)c1cn(CCCCCO)c2ccccc12` [AM693] were 526 nM and 835 nM.
As to `O=C(c1ccccc1I)c1cn(CCCCCF)c2ccccc12` [AM694], the Ki in assay [1] (TABLE 2) is 1.44 nM; in assay [2] (TABLE 2), 0.08 nM. The “selectivity for the CB1 receptor” value in assay [2] is listed as “high selectivity for the CB1 receptor”.
Take `Cc1ccc(S(=O)(=O)OCCCCCn2cc(C(=O)c3ccccc3I)c3ccccc32)cc1` [AM697]: the Ki in assay [1] (TABLE 2) is 1120 nM; in assay [2] (TABLE 2) it was 1310 nM.
Take `O=C(c1ccccc1I)c1cn(CCCCCI)c2ccccc12` [AM698]: the Ki in assay [1] (TABLE 2) was 315 nM; in assay [2] (TABLE 2), 136 nM.
`O=C(c1ccccc1I)c1cn(CCCCCN=C=S)c2ccccc12` [AM1201]: the Ki in assay [1] (TABLE 2) is 110 nM; in assay [2] (TABLE 2), 106 nM.
The corresponding values for `CCCCCn1cc(C(=O)c2cc([N+](=O)[O-])ccc2I)c2ccccc21` [AM1202] are 22.9 nM and 98.9 nM.
Taken in the same sequence, the figures for `CCCCCn1cc(C(=O)c2cc(N)ccc2I)c2ccccc21` [AM1203] were 88.9 nM and 63.6 nM.
Taken in the same sequence, the figures for `CCCCCn1cc(C(=O)c2cc(N=C=S)ccc2I)c2ccccc21` [AM1204] were 3350 nM and 5660 nM.
Turning to `CCCCCn1cc(C(=O)c2cc(N=[N+]=[N-])ccc2I)c2ccccc21` [AM1205], the Ki in assay [1] (TABLE 2) is 196 nM; in assay [2] (TABLE 2) it was 117 nM.
The corresponding values for `CCCCCn1cc(C(=O)c2cc(I)ccc2I)c2ccccc21` [AM1206] are 150 nM and 105 nM.
In the case of `CN1CCCCC1Cn1cc(C(=O)c2cccc3ccccc23)c2ccccc21` (stereo not shown) [AM1220], the Ki in assay [1] (TABLE 1, racemic samples) was 73.4 nM; in assay [2] (TABLE 1, racemic samples), 3.88 nM.
The corresponding values for `Cc1c(C(=O)c2cccc3ccccc23)c2ccc([N+](=O)[O-])cc2n1CC1CCCCN1C` (stereo not shown) [AM1221] are 0.28 nM and 52.3 nM.
Regarding `CC(=O)OCCCCCn1cc(C(=O)c2cccc3ccccc23)c2ccc([N+](=O)[O-])cc21` [AM1233], the Ki in assay [1] (TABLE 2) was 154 nM; in assay [2] (TABLE 2), 142 nM.
Take `O=C(c1cccc2ccccc12)c1cn(CCCCCO)c2cc([N+](=O)[O-])ccc12` [AM1234]: the values for the Ki in assay [1] (TABLE 2) and in assay [2] (TABLE 2) were 197 nM and 77.6 nM, respectively.
Turning to `O=C(c1cccc2ccccc12)c1cn(CCCCCF)c2cc([N+](=O)[O-])ccc12` [AM1235], the results for the Ki in assay [1] (TABLE 2) and in assay [2] (TABLE 2) were 20.4 nM and 1.5 nM, respectively. In assay [2], the “selectivity for the CB1 receptor” value was “high selectivity for the CB1 receptor”.
In the case of `CC(=O)OCCCCCn1cc(C(=O)c2cccc3ccccc23)c2ccc(N)cc21` [AM1236], the Ki was 559 nM in assay [1] (TABLE 2) and 1130 nM in assay [2] (TABLE 2).
With `Nc1ccc2c(C(=O)c3cccc4ccccc34)cn(CCCCCO)c2c1` [AM1237], the values for the Ki in assay [1] (TABLE 2) and in assay [2] (TABLE 2) were 244 nM and 837 nM, respectively. Moreover, in assay [1] (binding selectivity CB2 versus CB1, from the results in the TABLES), the “selectivity for the CB2 receptor” value was “high selectivity for the CB2 receptor”.
Take `O=C(c1cccc2ccccc12)c1cn(CCCCCO)c2cc(I)ccc12` [AM1238]: the Ki in assay [1] (TABLE 2) is 17.3 nM; in assay [2] (TABLE 2) it was 3.1 nM.
Take `CN1CCCCC1Cn1cc(C(=O)C23CC4CC(CC(C4)C2)C3)c2ccccc21` (stereo not shown) [AM1248]: the Ki is 332 nM in assay [1] (TABLE 1, racemic samples) and 100 nM in assay [2] (TABLE 1, racemic samples).
